The values that follow come from ChEMBL document CHEMBL5634077, “Recent advances in 1,2,3- and 1,2,4-triazole hybrids as antimicrobials and their SAR: A critical review” (2023).

In brackets after ≈: the same amount, converted by molar mass.

The test system of test [1] is Candida albicans. Put plainly: Antimicrobial activity against Candida albicans assessed as diameter of inhibition zone incubated for 24 hrs by disc-diffusion method. The test is classed as functional.
Test [2] relates to Escherichia coli. Put plainly: Antimicrobial activity against Escherichia coli assessed as diameter of inhibition zone incubated for 24 hrs by disc-diffusion method. It is filed as functional.
The subject of test [3] is Staphylococcus aureus. Put plainly: Antimicrobial activity against Staphylococcus aureus assessed as diameter of inhibition zone incubated for 24 hrs by disc-diffusion method. The test is classed as functional.
Test [4] relates to Klebsiella pneumoniae. Put plainly: Antimicrobial activity against Klebsiella pneumoniae assessed as diameter of inhibition zone incubated for 24 hrs by disc-diffusion method. The test is classed as functional.
Test [5] has as its system Candida albicans. Put plainly: Antifungal activity against Candida albicans assessed as diameter of inhibition zone at 50 to 100 ug/ml by disc-diffusion method. It is filed as functional. The note with it: dose 50-100 µg/ml.
In test [6] the test system is Aspergillus flavus. Put plainly: Antifungal activity against Aspergillus flavus assessed as diameter of inhibition zone at 50 to 100 ug/ml by disc-diffusion method. It is filed as functional. The note with it: dose 50-100 µg/ml.
The test system of test [7] is Staphylococcus aureus. Put plainly: Antibacterial activity against Staphylococcus aureus assessed as reduction in bacterial growth incubated for 24 hrs by broth microdilution method. The test is classed as functional.
In test [8] the test system is Escherichia coli. Put plainly: Antibacterial activity against Escherichia coli ATCC 8739 assessed as reduction in bacterial growth by micro-broth dilution method. It is filed as functional.
Test [9] has as its system Aspergillus niger. Put plainly: […] activity against Aspergillus niger NCIM 2191 assessed as reduction in […] by micro-broth dilution method. The test is classed as functional.
The test system of test [10] is Aspergillus fumigatus. Put plainly: […] activity against Aspergillus fumigatus NCIM 2081 assessed as reduction in […] by micro-broth dilution method. The test is classed as functional.
The subject of test [11] is Candida albicans. Put plainly: Antifungal activity against Candida albicans NCIM 2087 assessed as fungal growth inhibition. It is filed as functional.
The test system of test [12] is Staphylococcus aureus. Put plainly: Antibacterial activity against Staphylococcus aureus ATCC 29213 assessed as reduction in bacterial growth by micro-broth dilution method. It is filed as functional.
For test [13], the system named is Pseudomonas aeruginosa. Put plainly: Antibacterial activity against Pseudomonas aeruginosa MCCB 0035 assessed as reduction in bacterial growth by micro-broth dilution method. It is filed as functional.
Test [14] deals with Escherichia coli. Put plainly: Antibacterial activity against Escherichia coli assessed as reduction in bacterial growth by broth microdilution method. The test is classed as functional.
The test system of test [15] is Staphylococcus aureus. Put plainly: Antibacterial activity against Staphylococcus aureus ATCC 6538p assessed as reduction in microbial growth. The test is classed as functional.
The test system of test [16] is Bacillus subtilis. Put plainly: Antibacterial activity against Bacillus subtilis ATCC 6633 assessed as reduction in microbial growth. It is filed as functional.
The test system of test [17] is Escherichia coli. Put plainly: Antibacterial activity against Escherichia coli ATCC 25922 assessed as reduction in microbial growth. It is filed as functional.
In test [18] the test system is Salmonella typhimurium. Put plainly: Antibacterial activity against Salmonella typhimurium SL1344 assessed as reduction in microbial growth. It is filed as functional, Salmonella enterica subsp. enterica serovar Typhimurium. The note with it: Salmonella enterica.
Test [19] has as its system Micrococcus luteus. Put plainly: Antibacterial activity against Micrococcus luteus IFC 12708 assessed as reduction in microbial growth. It is filed as functional.
Test [20] has as its system Proteus vulgaris. Put plainly: Antibacterial activity against Proteus vulgaris ATCC 3851 assessed as reduction in microbial growth. It is filed as functional.
Test [21] relates to Bacillus subtilis. Put plainly: Antibacterial activity against Bacillus subtilis assessed as reduction in bacterial growth. It is filed as functional.
For test [22], the system named is Escherichia coli. Put plainly: Antibacterial activity against Escherichia coli assessed as reduction in bacterial growth. The test is classed as functional.
In test [23] the test system is Bacillus cereus. Put plainly: Antibacterial activity against Bacillus cereus NCIM 2156 assessed as reduction in bacterial growth incubated for 18 to 24 hrs by broth microdilution method. The test is classed as functional. The note with it: time 18-24 hrs.
The test system of test [24] is Staphylococcus aureus. Put plainly: Antibacterial activity against Staphylococcus aureus NCIM 2079 assessed as reduction in bacterial growth incubated for 18 to 24 hrs by broth microdilution method. The test is classed as functional. The note with it: time 18-24 hrs.
For test [25], the system named is Proteus mirabilis. Put plainly: Antibacterial activity against Proteus mirabilis NCIM 2241 assessed as reduction in bacterial growth incubated for 18 to 24 hrs by broth microdilution method. The test is classed as functional. The note with it: time 18-24 hrs.
For test [26], the system named is Pseudomonas aeruginosa. Put plainly: Antibacterial activity against Pseudomonas aeruginosa NCIM 2036 assessed as reduction in bacterial growth incubated for 18 to 24 hrs by broth microdilution method. The test is classed as functional. The note with it: time 18-24 hrs.
Test [27] relates to Escherichia coli. Put plainly: Antibacterial activity against Escherichia coli NCIM 2065 assessed as reduction in bacterial growth incubated for 18 to 24 hrs by broth microdilution method. The test is classed as functional. The note with it: time 18-24 hrs.
Test [28] concerns Proteus vulgaris. Put plainly: Antibacterial activity against Proteus vulgaris NCIM 2027 assessed as reduction in bacterial growth incubated for 18 to 24 hrs by broth microdilution method. It is filed as functional. The note with it: time 18-24 hrs.
Test [29] concerns Bacillus subtilis. Put plainly: Antibacterial activity against Bacillus subtilis NCIM 2063 assessed as reduction in bacterial growth incubated for 18 to 24 hrs by broth microdilution method. It is filed as functional. The note with it: time 18-24 hrs.
Test [30] deals with Proteus vulgaris. Put plainly: Antibacterial activity against Proteus vulgaris assessed as reduction in bacterial growth. It is filed as functional.
The subject of test [31] is Micrococcus luteus. Put plainly: Antibacterial activity against Micrococcus luteus assessed as reduction in microbial growth. The test is classed as functional.

Regarding `Sc1nnc(-c2ccc(Cl)cc2)n1/N=C/c1ccco1`, the “diameter of the inhibition zone (DIZ)” value in [1], in test [2], in test [3] and in test [4] was 4 mm each time.
As to `CCOC(=O)C1=C(C)Oc2nc(C)n(Cc3cn(-c4cccc(C(F)(F)F)c4)nn3)c(=O)c2C1c1ccc([N+](=O)[O-])cc1` (centres undefined), the “diameter of the inhibition zone (DIZ)” value in test [5] and in test [6] was 10.5 mm each time.
On to `CCOC(=O)C1=C(C)Oc2nc(C)n(Cc3cn(-c4cccc(F)c4)nn3)c(=O)c2C1c1ccc([N+](=O)[O-])cc1` (centres undefined), for which the “diameter of the inhibition zone (DIZ)” value in test [5] and in test [6] was 12 mm each time.
For the molecule `Cc1ccc2c(c1)c(=O)c1ccccc1n2Cc1cn(-c2ccccc2C)nn1`, in test [7], the minimal inhibitory concentration (MIC) worked out at 12.3 µg/mL (≈ 32.4 µM).
Regarding `Cc1ccccc1-n1cc(Cn2c3ccccc3c(=O)c3ccccc32)nn1`, the MIC in [7] came to 10.1 µg/mL (≈ 27.6 µM).
In the case of `O=c1cc(-c2ccccc2)c2cc(Cl)ccc2n1Cc1nnc2n1N=C(c1ccccc1)CS2`, the MIC was 2 µg/mL (≈ 4.13 µM) in [8]; 2 µg/mL (≈ 4.13 µM) in test [9]; 8 µg/mL (≈ 16.5 µM) in test [10]; 1 µg/mL (≈ 2.07 µM) in test [11]; 2 µg/mL (≈ 4.13 µM) in test [12]; 4 µg/mL (≈ 8.26 µM) in test [13].
On to `S=c1[nH]nc(-c2ccc(Cl)cc2Cl)n1/N=C/c1ccco1`, for which the “diameter of the inhibition zone (DIZ)” value in test [1], in test [2], in test [3] and in [4] was 3 mm in each case.
For `O=c1cc(-c2ccccc2)c2cc(Br)ccc2n1Cc1nnc2n1N=C(c1ccccc1)CS2`, the MIC in [8] came out at 2 µg/mL (≈ 3.78 µM); in [9], 4 µg/mL (≈ 7.57 µM); in test [10] it was 32 µg/mL (≈ 60.6 µM); in test [11], 2 µg/mL (≈ 3.78 µM); in [12] it was 1 µg/mL (≈ 1.89 µM); in test [13] it was 4 µg/mL (≈ 7.57 µM).
On to `Cc1ccc(NC(=O)Cn2cc(Cn3cc(CC(NC(=O)C(C)c4ccc(CC(C)C)cc4)C(=O)NC(Cc4ccccc4)C(N)=O)c4ccccc43)nn2)c(C)c1` (centres undefined), for which, in [14], the MIC was 25 µg/mL (≈ 32 µM).
Take `Cc1c(-c2nn(-c3ccccc3)cc2C2SCC(=O)N2c2cc(F)ccc2F)nnn1-c1ccccc1` (centres undefined): the MIC in [15], in [16], in test [17], in test [18], in test [19] and in test [20] was 1.56 µg/mL each time.
Regarding `CC(c1ccc(Br)cc1)n1cc(Cn2cc(/C=C/C(=O)c3ccc(Br)cc3)c3ccccc32)nn1` (centres undefined), the MIC was 10.9 µM in [21] and 10.9 µM (≈ 6.43 µg/mL) in [22].
For `Nn1c(NCCCNc2ccnc3cc(Cl)ccc23)nn(CN2CCNCC2)c1=S`, the minimum inhibitory concentration (MIC) in test [23] stood at 3.12 µg/mL (≈ 6.98 µM); in test [24] it was 3.12 µg/mL (≈ 6.98 µM); in test [25], 12.5 µg/mL (≈ 27.9 µM); in [26] it was 25 µg/mL (≈ 55.8 µM); in [27] it was 6.25 µg/mL (≈ 14 µM); in test [28], 12.5 µg/mL (≈ 27.9 µM). The MIC in test [29] is 12.5 µg/mL (≈ 27.9 µM).
Regarding `COc1cc(/C=N/n2c(-c3ccc(Cl)cc3)n[nH]c2=S)ccc1O`, the “diameter of the inhibition zone (DIZ)” value in test [1], in test [2], in test [3] and in test [4] was 4 mm each time.
On to `COc1ccc(-c2cc(-c3nnn(-c4ccccc4)c3C)no2)cc1`, for which the MIC in test [21] came out at 1.56 µg/mL; in test [30] it was 1.56 µg/mL (≈ 4.69 µM); in [31] it was 1.56 µg/mL.
